Reference: US8216610B2, “Oral paracetamol formulations” (Imaginot Pty Ltd., priority 2004, dated 2012)
In brackets after ≈: the same amount, converted by molar mass. Structures can show the parent of a compound that is named as a salt.

What was measured:
[1] = Solubility in water; type: physicochemical; settings: on a weight for weight basis; doses of the combination tablet
[2] = cited from earlier work
[3] = cited from earlier work; remark: listed apart in the source

Compound | volume needed for total dissolution of the dose [1] | dependence of solubility on pH [2] | solubility in water [2] | paracetamol concentration effective for antipyresis ([3]; Rumack et al 1978) [µg/mL] | range of paracetamol plasma concentrations for effective analgesia ([3]; humans, Prescott 1974) [µg/mL]
COc1cccc(C2(O)CCCCC2CN(C)C)c1 (centres unmarked) [tramadol hydrochloride] | around 1 mL | reduced as the pH increases | around 30 mg/mL | – | –
CC(=O)Nc1ccc(O)cc1 [paracetamol, N-acetyl-p-aminophenol] | around 27 mL | independent of the pH | ~14 mg/mL (≈ 92.6 mM) | 10 to 20 | 5 to 20
